Tests used:
NP-1/Fc = test: Inhibition of 125I-VEGF165 binding to NP-1/Fc
Description: The ability of various compositions comprising TKPPR monomers or multimers to inhibit ^125I-VEGF binding to NP-1 was evaluated using NP-1/Fc. Competitive binding assays with microtiter plates coated with NP-1/Fc (R&D sytems) were performed using ^125I-VEGF165 as radioligand (Amersham Pharmacia Biotech Cat. No. IM274, Specific Activity: 1000-2500 Ci/mmol). […] Plates (Nunc MaxiSorp white opaque Microtiter plate [C-bottom, 437796]) were coated by incubating the wells with 75 µl of a solution containing 3 μlg/mL NP-1/Fc in D-PBS/0.1% NaAzide overnight at 4° C. after covering with sealing tape (Dynex, VWR Cat. No. 62402-931). […] All points were derived from triplicate wells, and for each set of replicates in NP-1/Fc-coated wells, a companion set in the absence of the receptor was included. For competitive binding, a series of unlabelled competitor concentrations were prepared in a 250 pM solution of ^1251-VEGF165 in assay buffer Solutions were added to 1.2 ml polypropylene tubes conforming to the microtiter format (Costar Cat. No. 29442-602), and transferred from these tubes to microtiter wells, without further dilution, using a multichannel pipettor. After addition of the appropriate solutions, microtiter plates were incubated at 4° C. for 2 hours. […] The plates were blotted dry and 25 μl deionized water and 100 μl scintillation fluid (Optiphase SuperMix, Wallac) were added to each well. Plates were agitated using a Plate Shaker (Hyperion, Cat. No. 4030-100F) for 3-5 minutes and were then counted using a Microplate Scintillation Counter (Wallac Microbeta Trilux) A set of serially diluted 125I-VEGF165 standard wells ranging from 200 to 0.04 pM were included with each experiment to aid in quantification of the amount of radiolabel bound.

KDR-Fc = molecular target: T1, KDR-Fc (Homo sapiens, UniProt P35968); test: Inhibition of 125I-VEGF165 binding to KDR-Fc; settings: at the highest concentrations tested
T1 construct: purchased R&D Systems
T1 sequence (P35968 with tags, fused parts or gaps limits assumed): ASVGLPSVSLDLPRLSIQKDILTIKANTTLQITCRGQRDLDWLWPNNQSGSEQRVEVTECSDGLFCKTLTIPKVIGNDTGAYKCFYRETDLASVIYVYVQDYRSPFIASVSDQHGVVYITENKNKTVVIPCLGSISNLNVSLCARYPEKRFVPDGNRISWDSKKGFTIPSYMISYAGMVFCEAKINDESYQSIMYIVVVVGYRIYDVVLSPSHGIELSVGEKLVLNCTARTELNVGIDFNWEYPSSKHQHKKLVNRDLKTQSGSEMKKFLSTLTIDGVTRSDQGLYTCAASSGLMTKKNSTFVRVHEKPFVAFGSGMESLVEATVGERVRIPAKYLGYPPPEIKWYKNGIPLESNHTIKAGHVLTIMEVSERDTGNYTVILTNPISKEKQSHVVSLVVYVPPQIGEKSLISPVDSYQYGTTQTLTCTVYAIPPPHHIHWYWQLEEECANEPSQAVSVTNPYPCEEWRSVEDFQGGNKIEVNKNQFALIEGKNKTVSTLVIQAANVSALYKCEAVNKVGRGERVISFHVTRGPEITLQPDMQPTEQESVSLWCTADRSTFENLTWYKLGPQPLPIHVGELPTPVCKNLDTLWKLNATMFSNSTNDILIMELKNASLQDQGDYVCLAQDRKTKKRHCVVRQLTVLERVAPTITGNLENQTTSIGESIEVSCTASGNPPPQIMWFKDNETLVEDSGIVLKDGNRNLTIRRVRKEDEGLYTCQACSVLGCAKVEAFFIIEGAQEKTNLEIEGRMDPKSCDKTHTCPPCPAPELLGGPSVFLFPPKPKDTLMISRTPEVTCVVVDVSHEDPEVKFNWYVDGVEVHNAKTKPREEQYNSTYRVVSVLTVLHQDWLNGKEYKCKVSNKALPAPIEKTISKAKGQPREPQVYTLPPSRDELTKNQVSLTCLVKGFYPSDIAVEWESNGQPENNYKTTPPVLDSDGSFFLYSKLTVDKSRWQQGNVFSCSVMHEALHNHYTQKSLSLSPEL

Neuropilin-1/Fc = test: Fluorescence polarization binding to NP-1/Fc; settings: Oregon Green-labeled ligand 5-20 nM, 37° C., D-PBS pH 7.4; different experiments
Description: The ability of various compositions comprising TKPPR monomers or multimers to bind to NP-1/Fc and KDR-Fc was evaluated using FP. The binding studies of various Oregon Green (OG)-labeled compounds comprising TKPPR monomers or multimers and related compounds with Neuropilin-1/Fc, and KDR-Fc (both from R&D Systems), were carried out at 37° C. in D-PBS buffer (pH 7.4). FP values (mP) for each substrate was measured by titrating the ligand (5-20 nM) with receptor protein using a Jolley Research and Consulting FPM-1 fluorescence Polarization analyzer. In each of these experiments the observed polarization values were plotted against receptor concentration. The mP values for 100% binding of tracer labeled ligand to receptor protein was calculated using the software provided by the vendor.

[1] = tested on: Human Umbilical Vein Endothelial Cells (HUVECS)
Description: The ability of compositions comprising a TKPPR monomer and a TKPPR multimer to inhibit ^125I-VEGF binding to endothelial cells was evaluated using HUVECs.

HAEC = test: TKPPR-bead binding to endothelial cells under flow; type: cell-based, human; settings: flow 1.91 mL/min, 37° C.
Description: Circular 40 mm diameter glass coverslips (Bioptechs, Cat No. 40-1313-0319) were first derivative by dipping in 3-aminopropyltriethoxysilane (Pierce, Cat No. 80370ZZ), 20% in acetone (HPLC grade, Sigma Aldrich Cat No. 27,072-5), rinsed in acetone, and air-dried. After autoclaving, the derivatized coverslips were placed into 60 mm round, sterile culture dishes, one coverslip per dish. Five mL of a Collagen I solution (Becton Dickinson, Cat No. 40236), 41.6 μg/mL in 20 mM acetic acid (adjusted to pH 6.7 with NaOH), was added to each coverslip-containing dish. After 15 min, 0.25 mL of 11.5 mg/mL bis(sulfosuccinimidyl) suberate (Pierce, Cat No. 21580ZZ) was added to each dish and mixed in by swirling. After a 105-minute incubation, the dishes were drained and 5 mL of sterile TBS (20 mM Tris-HCl, pH 7.5, 140 mM NaCl) was added to each dish. […]
Coverslips containing confluent HAEC were mounted into a Bioptechs FCS2 parallel plate flow cell mounted on an Olympus IMT-2 inverted microscope. […] Wall shear stress T, in dynes/cm^2, was calculated using the equation (Lawrence et al., Blood 75:227-237, 1990): [formula]
Bead binding of equal numbers of red fluorescent beads conjugated with TKPPR and green fluorescent beads conjugated with glycine was monitored after increasing lengths of perfusion and variable lengths of subsequent washing with the same solution lacking microspheres.

[2] = tested on: Human aortic endothelial cells (HAEC); test: TKPPR-conjugated fluorescent bead binding to HAEC, static; type: cell-based
Description: Human aortic endothelial cells (HAEC) from Biowhittaker were grown as monolayers in EGM-MV medium from Biowhittaker according to the supplier's instructions.
Briefly, a frozen cryovial of cells (500,000 cells in about 1 mL) was thawed for 2-3 minutes in a 37° C. water bath and cells were seeded into a T-75 flask coated with collagen I (commercially available) containing 15 mL EGM-MV of medium pre-equilibrated with 5% CO2 atmosphere. Cells were incubated in a standard tissue culture incubator at 37° C. HAEC were subcultured for up to 3 additional passages, using the following protocol:
For binding studies and characterization, pelleted cells were diluted to a concentration of 16,560 cells per mL, and 0.5 mL was seeded into each well of an 8-well chamber slide (Collagen I-coated, Becton Dickinson) to generate a seeding density of 12,000 cells/cm^2. Cells seeded into chamber slides were used for assays after 7 to 10 days, and were not further propagated.
TKPPR (see preparation described in the Example 1) was attached to red fluorescent carboxylate-modified FluoSpheres™ (Molecular Probes), which are 2.0 μm microspheres provided at 3.9×10^9 particles/mL of distilled water. 1.0 mg TKPPR was combined with 0.5 mLof 50 mM MES buffer (2-[N-Morpholino]ethanesulfonic acid, (commercially available), pH 6.0 and 0.2 mL FluoSpheres (7.8×10^8 spheres) in a 1.5 mL Eppendorf snap top, polypropylene centrifuge tube and rotated for 30 min at room temperature (RT). Then 2.8 mg EDAC (1-ethyl-3-(3-dimethylaminopropyl)carbodiimide hydrochloride, (commercially available) in 0.025 mL MES was added and the tube was rotated for 2 h at RT. Following the addition of 0.005 mL 1 N NaOH and 5.7 mg glycine in 0.025 mL MES, the tube was rotated for 30 min more at RT. The beads were then washed by employing three cycles of centrifugation at 14,000 rpm (20,800× g) in an Eppendorf 5417R centrifuge for 15 min, discarding the resulting supernatant, and resuspending in D-PBS. Storage was at 4° C. in 0.4 mL DPBS containing 0.05% NaN3 (final bead concentration was about 1.95×10^9/mL).
Final bead concentration was 1.95×10^7/mL. […]
Bead binding and localization was assessed at 200× magnification using the same microscopy equipment as described above. […] Finally, the processed images were inverted into black on a white background using Scion Image software (version beta 3b) and the integrated density was measured with the whole field selected.
The incubation time was decreased to 15 min on an orbital shaker, and the washes (3) were carried out using D-PBS containing 0.1% Tween 20 (Sigma). […] TKPPR-bead binding was quantitated in three fields, the other bead types were quantitated in one field only. Bound beads were quantitated by manual counting.

`C/C(=N\O)C(C)(C)NOCCNC(C)(C)/C(CCNC(=O)CCCCCC(=O)NCC(=O)N(CCC(=O)NCC(=O)N(CCC(=O)NCCOCCOCC(=O)N[C@H](C(=O)N[C@@H](CCCCN)C(=O)N1CCC[C@H]1C(=O)N1CCC[C@H]1C(=O)N[C@@H](CCCNC(=N)N)C(=O)O)[C@@H](C)O)CCC(=O)NCCOCCOCC(=O)N[C@H](C(=O)N[C@@H](CCCCN)C(=O)N1CCC[C@H]1C(=O)N1CCC[C@H]1C(=O)N[C@@H](CCCNC(=N)N)C(=O)O)[C@@H](C)O)CCC(=O)NCC(=O)N(CCC(=O)NCCOCCOCC(=O)N[C@H](C(=O)N[C@@H](CCCCN)C(=O)N1CCC[C@H]1C(=O)N1CCC[C@H]1C(=O)N[C@@H](CCCNC(=N)N)C(=O)O)[C@@H](C)O)CCC(=O)NCCOCCOCC(=O)N[C@H](C(=O)N[C@@H](CCCCN)C(=O)N1CCC[C@H]1C(=O)N1CCC[C@H]1C(=O)N[C@@H](CCCNC(=N)N)C(=O)O)[C@@H](C)O)=N/O` [BRU-326] was tested, and the “fold more potent than the monomer” value (NP-1/Fc) was 230 to 330 fold, the IC50 (NP-1/Fc; 250 pM 125I-VEGF165, 4° C., 2 hours) was 130 nM and the “inhibition of 125I-VEGF165 binding to KDR” value (KDR-Fc) was “none”. It also gave a Kd (Neuropilin-1/Fc) of 25 to 50 nM and an IC50 [1] of 10000 nM.
With Glycine the “Beads bound at 1.53 dynes/cm^2” value (HAEC) was 10.
For GRGDSP, the “Integrated density of bound beads” value ([2]; Experiment 1, 1.95×10^7 beads/mL, 30 min, HAEC monolayer) was 28.59 arbitrary units and the “Number of bound beads” value ([2]; Experiment 2, 4.9×10^6 beads/mL, 15 min, manual counting, TKPPR average of three fields, others one field) was 2.
